Assay results from US8003801B2 (The Scripps Research Institute, priority 2005, dated 2011).
Where “and” joins values, the source holds several entries; their conditions need not be identical. Equal values may be shown once. Entries after “also recorded” stand apart in the source; their conditions may differ. Read-outs that look alike come from different tables or passages of the source.

Columns and labels:
[1] = test system: 1A9 human ovarian cancer cell line; test: 72 hour growth-inhibition (cytotoxicity) assay, 1A9 cells; format: cell-based; settings: for IC50: Homo sapiens, 1A9; for RAEpoB (relative activity), 1A9: ratio of IC50 of EpoB to IC50 of the tested compound in the concurrent assay
[2] = test system: 1A9/PTX10, Taxol-resistant 1A9 cell line (β270 Phe→Val); test: 72 hour growth-inhibition (cytotoxicity) assay, 1A9/PTX10 cells; format: cell-based, human; settings: for IC50: Homo sapiens, 1A9/ptx-10; for RAEpoB (relative activity), 1A9/PTX10: ratio of IC50 of EpoB to IC50 of the tested compound in the concurrent assay; for RRp (relative resistance), 1A9/PTX10: IC50 of 1A9/PTX10 divided by IC50 of the parental cell line 1A9
[3] = test system: 1A9/A8, EpoA-resistant 1A9 cell line (β274 Thr→Ile); test: 72 hour growth-inhibition (cytotoxicity) assay, 1A9/A8 cells; format: cell-based, human; settings: for IC50: Homo sapiens, 1A9; for RAEpoB (relative activity), 1A9/A8: ratio of IC50 of EpoB to IC50 of the tested compound in the concurrent assay; for RRp (relative resistance), 1A9/A8: IC50 of 1A9/A8 divided by IC50 of the parental cell line
[4] = test system: KB-31 human epidermoid cancer cell line; test: 72 hour growth-inhibition (cytotoxicity) assay, KB-31 cells; format: cell-based; settings: for IC50: Homo sapiens
[5] = test system: KB-8511, Taxol-resistant (Pgp-overexpression) KB cell line; settings: human, 72 h
Protocol: (§1) In addition, further cytotoxicity studies were carried out using a pair of drug-sensitive parental human epidermoid carcinoma cells (KB-31) and its Taxol™-resistant Pgp-overexpressing subline (KB-5811).

[6] = test system: A2780/AD10, drug-resistant clone of human ovarian carcinoma A2780 overexpressing P-glycoprotein; test: 72 hour growth-inhibition (cytotoxicity) assay, A2780/AD10 cells; format: cell-based; settings: for IC50: Homo sapiens, A2780, 72 hour growth inhibition, sulforhodamine-B staining, mean of 3-5 experiments ± SEM; for RRp (relative resistance), A2780/AD10: IC50 of A2780/AD10 divided by IC50 of the parental cell line; for potency enhancement over EpoB, A2780/AD10: PgP-overexpressing cell line
[7] = test system: drug-sensitive and drug-resistant human cancer cell lines; test: Cytotoxicity assays across the panel of cell lines (summary in words); format: cell-based; settings: summary of Tables 1A-1C
[8] = test system: KB-8511, Taxol-resistant (Pgp-overexpression) KB cell line; test: 72 hour growth-inhibition (cytotoxicity) assay, KB-8511 cells
Protocol: as §1

[9] = Table 2, tested epothilone, unit from Table 1A note a, read-out: IC50, 1A9 (Table 2)
[10] = Table 2, tested epothilone, unit from Table 1A note a, read-out: IC50, 1A9/PTX10 (Table 2)
[11] = Table 2, tested epothilone, unit from Table 1A note a, read-out: IC50, 1A9/A8 (Table 2)
[12] = 72 hour growth inhibition, sulforhodamine-B staining, mean of 3-5 independent experiments ± standard error of the mean, read-out: 1A9 IC50
[13] = 72 hour growth inhibition, sulforhodamine-B staining, mean of 3-5 experiments ± SEM, read-out: 1A9/PTX10 IC50
[14] = 72 hour growth inhibition, sulforhodamine-B staining, mean of 3-5 experiments ± SEM, read-out: 1A9/A8 IC50
[15] = KB 3-1, 72 h, read-out: KB-31 IC50
[16] = read-out: KB-8511 IC50, 72 hour growth inhibition, methylene blue staining, mean of 3-5 experiments ± SEM
[17] = KB 3-1, read-out: IC50, KB-31 (Table 2)
[18] = read-out: IC50, KB-5811 (Table 2), Table 2, tested epothilone, cell line KB-5811, unit from Table 1A note a

For `CSc1nc(/C=C(\C)[C@@H]2C[C@@H]3O[C@]3(C)CCC[C@H](C)[C@H](O)[C@@H](C)C(=O)C(C)(C)[C@@H](O)CC(=O)O2)cs1` [Compound 3, reference compound], the IC50 [1, 9] was 0.17 nM, the “RAEpoB (relative activity), 1A9” value [1] was 1.8 and the IC50 [2, 10] was 0.26 nM. For the same compound, the “RAEpoB (relative activity), 1A9/PTX10” value [2] was 14.2, the IC50 [3, 11] was 1.3 nM and the “RAEpoB (relative activity), 1A9/A8” value [3] was 5.0. The IC50 ([4]; KB 3-1, Table 2, tested epothilone, unit from Table 1A note a, read-out: IC50, KB-31 (Table 2)) was 0.11 nM and the IC50 [5] was 0.07 nM.
`C/C(=C\c1nccn1C)[C@@H]1C[C@@H]2O[C@]2(C)CCC[C@H](C)[C@H](O)[C@@H](C)C(=O)C(C)(C)[C@@H](O)CC(=O)O1` [Compound 8] was tested, and the IC50 [1, 12] was 95.5 ± 13.4 nM, the IC50 [2, 13] was > 750 nM and the IC50 [3, 14] was 242 nM. The “RRp (relative resistance), 1A9/A8” value [3] was 2.5, the IC50 [6] was 760 nM and the “RRp (relative resistance), A2780/AD10” value [6] was 1.4. For the same compound, the IC50 [4, 15] was 69.9 ± 5.31 nM, the “cytotoxicity across the tested cell lines, in words” value [7] was “significantly lower activities” and the IC50 [8, 16] was > 1000 nM.
In the case of `C/C(=C\c1ncnn1C)[C@@H]1C[C@@H]2O[C@]2(C)CCC[C@H](C)[C@H](O)[C@@H](C)C(=O)C(C)(C)[C@@H](O)CC(=O)O1` [Compound 9], the IC50 [1, 12] is reported as 540 nM, the IC50 [2, 13] is reported as > 750 nM and the IC50 [3, 14] is reported as 627 nM. For the same compound, the “RRp (relative resistance), 1A9/A8” value [3] was 1.2, the IC50 [6] was > 750 nM and the IC50 [4, 15] was 382 ± 49.4 nM. For the same compound, the “cytotoxicity across the tested cell lines, in words” value [7] was “significantly lower activities” and the IC50 [8, 16] was > 1000 nM.
For `C/C(=C\c1ccn(C)n1)[C@@H]1C[C@@H]2O[C@]2(C)CCC[C@H](C)[C@H](O)[C@@H](C)C(=O)C(C)(C)[C@@H](O)CC(=O)O1` [Compound 14], the IC50 [1, 12] was 0.5 ± 0.3 nM, the IC50 [1, 9] was 0.5 nM and the “RAEpoB (relative activity), 1A9” value [1] was 2.0. The IC50 [2, 13] was 1.7 ± 1.1 nM, the IC50 [2, 10] was 1.7 nM and the “RRp (relative resistance), 1A9/PTX10” value [2] was 3.4. The “RAEpoB (relative activity), 1A9/PTX10” value [2] was 4.6, the IC50 [3, 14] was 0.8 ± 0.3 nM and the IC50 [3, 11] was 0.8 nM. For the same compound, the “RRp (relative resistance), 1A9/A8” value [3] was 1.6, the “RAEpoB (relative activity), 1A9/A8” value [3] was 12.5 and the IC50 [6] was 25.5 ± 15.1 nM. For the same compound, the “RRp (relative resistance), A2780/AD10” value [6] was 4.7, the “potency enhancement over EpoB, A2780/AD10” value [6] was 20 fold and the IC50 [4, 15] was 0.19 ± 0.01 nM. For the same compound, the IC50 [4, 17] was 0.19 nM, the “cytotoxicity across the tested cell lines, in words” value [7] was “more potent cytotoxicities than EpoB across the board” and the IC50 [8, 18] was 0.25 nM. The IC50 [8, 16] was 0.25 ± 0.04 nM.
`C/C(=C\c1ccn(-c2ccccc2)n1)[C@@H]1C[C@@H]2O[C@]2(C)CCC[C@H](C)[C@H](O)[C@@H](C)C(=O)C(C)(C)[C@@H](O)CC(=O)O1` [Compound 15] was tested, and the IC50 [1, 12] was 5.45 ± 3.7 nM, the IC50 [2, 13] was 25.8 ± 19.8 nM and the “RRp (relative resistance), 1A9/PTX10” value [2] was 4.7. For the same compound, the IC50 [3, 14] was 4.8 ± 3.6 nM, the “RRp (relative resistance), 1A9/A8” value [3] was 0.9 and the IC50 [6] was 6.4 nM. For the same compound, the “RRp (relative resistance), A2780/AD10” value [6] was 107, the IC50 [4, 15] was 2.27 ± 0.16 nM and the “cytotoxicity across the tested cell lines, in words” value [7] was “somewhat less active”. It also gave an IC50 [8, 16] of 1.62 ± 0.14 nM.
In the case of `CSc1cc(/C=C(\C)[C@@H]2C[C@@H]3O[C@]3(C)CCC[C@H](C)[C@H](O)[C@@H](C)C(=O)C(C)(C)[C@@H](O)CC(=O)O2)nn1C` [Compound 16], the “potency (activity) increase as compared to EpoB, 1A9” value ([1]; 1A9 parental cell line) is reported as 17 fold and 16.5 fold, the IC50 [1, 12] is reported as 0.06 ± 0.04 nM and the IC50 [1, 9] is reported as 0.06 nM. The “RAEpoB (relative activity), 1A9” value [1] was 16.5, the IC50 [2, 13] was 0.1 nM and the IC50 [2, 10] was 0.1 nM. For the same compound, the “RRp (relative resistance), 1A9/PTX10” value [2] was 1.7, the “potency increase as compared to EpoB, 1A9/PTX10” value ([2]; Taxol-resistant cell line) was 78 fold and 78.0 fold and the “RAEpoB (relative activity), 1A9/PTX10” value [2] was 78.0. The “potency (activity) increase as compared to EpoB, 1A9/A8” value ([3]; EpoA-resistant cell line) was 17 fold and 16.7 fold, the IC50 [3, 14] was 0.6 ± 0.5 nM and the IC50 [3, 11] was 0.6 nM. For the same compound, the “RRp (relative resistance), 1A9/A8” value [3] was 10.0, the “RAEpoB (relative activity), 1A9/A8” value [3] was 16.7 and the IC50 [6] was 30.3 ± 17.7 nM. The “RRp (relative resistance), A2780/AD10” value [6] was 8.2, the “potency enhancement over EpoB, A2780/AD10” value [6] was 4 fold and the IC50 [4, 15] was 0.09 ± 0.01 nM. The IC50 [4, 17] was 0.09 nM, the “potency increase as compared to EpoB, KB cell lines” value ([4]; KB cell lines (KB-31 and KB-8511 together)) was 3-5 fold and the “cytotoxicity across the tested cell lines, in words” value [7] was “the most potent of all compounds tested; also recorded: outperformed EpoB in all five cancer cell lines tested”. It also gave an IC50 [8, 18] of 0.14 nM and an IC50 [8, 16] of 0.14 ± 0.01 nM.
In the case of `C/C(=C\C#N)[C@@H]1C[C@@H]2O[C@]2(C)CCC[C@H](C)[C@H](O)[C@@H](C)C(=O)C(C)(C)[C@@H](O)CC(=O)O1` [Compound 21], the IC50 [1, 12] is reported as > 750 nM, the IC50 [2, 13] is reported as > 750 nM and the IC50 [3, 14] is reported as > 750 nM. For the same compound, the IC50 [6] was > 150 nM, the IC50 [4, 15] was 346 ± 10.5 nM and the “cytotoxicity across the tested cell lines, in words” value [7] was “not found active; also recorded: devoid of any significant cytotoxicity against any of the cell lines tested”. For the same compound, the IC50 [8, 16] was > 1000 nM.
